According to ChEMBL document CHEMBL1201862, “PubChem BioAssay data set” (2004):
Activity calls are given as the source filed them.

Legend:
[1] = target: Luciferin 4-monooxygenase (Photinus pyralis, UniProt P08659); test: inhibition of purified Photinus pyralis luciferase – biochemical, luminescence, dose response (AID 1891)
Cytochrome P450 1A2 = target: T1, Cytochrome P450 1A2 (Homo sapiens, UniProt P05177);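 also: PubChem cytochrome P450 panel assay, CYP1A2 panel member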
T1 sequence (P05177 whole entry): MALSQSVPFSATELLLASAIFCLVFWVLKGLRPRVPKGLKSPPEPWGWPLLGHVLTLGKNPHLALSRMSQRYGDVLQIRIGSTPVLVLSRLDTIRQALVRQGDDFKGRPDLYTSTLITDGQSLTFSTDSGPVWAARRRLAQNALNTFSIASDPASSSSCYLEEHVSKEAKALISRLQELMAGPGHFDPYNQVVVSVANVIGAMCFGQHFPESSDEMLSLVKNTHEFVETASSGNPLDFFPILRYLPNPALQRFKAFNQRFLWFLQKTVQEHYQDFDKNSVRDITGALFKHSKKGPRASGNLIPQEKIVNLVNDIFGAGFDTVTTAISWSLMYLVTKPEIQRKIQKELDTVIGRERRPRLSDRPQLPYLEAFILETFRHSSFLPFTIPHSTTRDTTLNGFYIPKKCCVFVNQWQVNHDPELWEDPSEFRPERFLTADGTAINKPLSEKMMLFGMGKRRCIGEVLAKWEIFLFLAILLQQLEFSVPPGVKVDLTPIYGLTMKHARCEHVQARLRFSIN

Cytochrome P450 2D6 = Cytochrome P450 2D6 (Homo sapiens, UniProt P10635);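 also: CYP2D6 member of a cytochrome P450 panel assay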
Sequence of Cytochrome P450 2D6 (P10635 whole entry): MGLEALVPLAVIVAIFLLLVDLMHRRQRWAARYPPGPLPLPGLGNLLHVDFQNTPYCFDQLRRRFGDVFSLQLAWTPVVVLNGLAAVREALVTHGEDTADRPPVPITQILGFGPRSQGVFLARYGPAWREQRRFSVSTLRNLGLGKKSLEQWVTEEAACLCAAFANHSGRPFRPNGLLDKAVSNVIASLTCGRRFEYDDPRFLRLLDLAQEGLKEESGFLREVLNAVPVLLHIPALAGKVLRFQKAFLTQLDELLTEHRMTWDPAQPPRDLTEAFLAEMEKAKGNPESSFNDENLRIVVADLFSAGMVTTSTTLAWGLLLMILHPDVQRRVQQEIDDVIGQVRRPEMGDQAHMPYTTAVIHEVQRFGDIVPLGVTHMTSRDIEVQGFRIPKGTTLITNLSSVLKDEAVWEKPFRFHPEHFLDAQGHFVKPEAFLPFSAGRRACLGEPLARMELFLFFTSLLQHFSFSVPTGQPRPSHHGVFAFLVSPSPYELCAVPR

[2] = Luminescence Cell-Based Dose Confirmation HTS to Identify Inhibitors of Platelet Dense Granule Release. [Related pubchem assays: 1663 (Primary HTS), 1678 (Summary of Project)]; type: functional
[3] = target: 72 kDa type IV collagenase (Homo sapiens, UniProt P08253); test: Dose Response validation of uHTS RPN11 inhibitor hits using a MMP-2 Fluorescence assay.; type: functional
Sequence of 72 kDa type IV collagenase (P08253 whole entry): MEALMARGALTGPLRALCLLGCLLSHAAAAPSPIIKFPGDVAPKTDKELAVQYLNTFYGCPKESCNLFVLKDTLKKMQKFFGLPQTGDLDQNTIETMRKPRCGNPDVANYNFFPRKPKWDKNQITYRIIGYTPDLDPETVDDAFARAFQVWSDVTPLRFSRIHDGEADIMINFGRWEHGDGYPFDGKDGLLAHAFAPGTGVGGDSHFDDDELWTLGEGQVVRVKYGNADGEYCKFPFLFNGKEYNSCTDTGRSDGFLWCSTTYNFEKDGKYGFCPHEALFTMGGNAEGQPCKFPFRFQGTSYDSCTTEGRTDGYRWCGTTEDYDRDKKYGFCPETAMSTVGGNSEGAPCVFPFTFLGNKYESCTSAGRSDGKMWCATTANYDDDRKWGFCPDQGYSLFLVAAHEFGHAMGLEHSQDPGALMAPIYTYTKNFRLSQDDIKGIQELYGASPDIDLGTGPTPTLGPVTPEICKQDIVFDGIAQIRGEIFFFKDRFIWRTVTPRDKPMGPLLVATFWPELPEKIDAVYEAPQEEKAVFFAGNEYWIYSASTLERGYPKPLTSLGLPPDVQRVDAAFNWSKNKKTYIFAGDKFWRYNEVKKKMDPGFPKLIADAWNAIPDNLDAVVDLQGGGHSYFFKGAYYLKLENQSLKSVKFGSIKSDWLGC

[4] = target: 26S proteasome non-ATPase regulatory subunit 14 (Homo sapiens, UniProt O00487); test: inhibition of proteasome subunit RPN11 – biochemical, fluorescence polarization, uHTS hits, confirmation (AID 602368); type: functional
Sequence of 26S proteasome non-ATPase regulatory subunit 14 (O00487 whole entry): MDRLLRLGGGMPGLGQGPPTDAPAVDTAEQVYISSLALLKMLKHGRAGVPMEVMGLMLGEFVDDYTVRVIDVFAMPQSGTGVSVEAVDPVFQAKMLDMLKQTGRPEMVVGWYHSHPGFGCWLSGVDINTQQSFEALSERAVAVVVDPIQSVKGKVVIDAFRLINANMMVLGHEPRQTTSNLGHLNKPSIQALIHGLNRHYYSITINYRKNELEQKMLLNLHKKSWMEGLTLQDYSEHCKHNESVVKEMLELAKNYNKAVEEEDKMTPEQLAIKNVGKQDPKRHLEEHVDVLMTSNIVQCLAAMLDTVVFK

Prothrombin = Prothrombin (Bos taurus, UniProt P00735); test: thrombin protease inhibitors – biochemical, fluorescence polarization, uHTS hits, dose response (AID 602369); type: functional
[5] = target: T2, Microphthalmia-associated transcription factor (Homo sapiens, UniProt O75030); test: reducers of TRPM1 reporter luminescence, concentration series – cell-based, SK-MEL-5, cherry-picked, set 3, MITF inhibitor project, dose response (AID 493073); type: functional;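 also: SK-MEL-5 melanoma cells with luciferase driven by the MITF target TRPM1 promoter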
T2 sequence (O75030 whole entry): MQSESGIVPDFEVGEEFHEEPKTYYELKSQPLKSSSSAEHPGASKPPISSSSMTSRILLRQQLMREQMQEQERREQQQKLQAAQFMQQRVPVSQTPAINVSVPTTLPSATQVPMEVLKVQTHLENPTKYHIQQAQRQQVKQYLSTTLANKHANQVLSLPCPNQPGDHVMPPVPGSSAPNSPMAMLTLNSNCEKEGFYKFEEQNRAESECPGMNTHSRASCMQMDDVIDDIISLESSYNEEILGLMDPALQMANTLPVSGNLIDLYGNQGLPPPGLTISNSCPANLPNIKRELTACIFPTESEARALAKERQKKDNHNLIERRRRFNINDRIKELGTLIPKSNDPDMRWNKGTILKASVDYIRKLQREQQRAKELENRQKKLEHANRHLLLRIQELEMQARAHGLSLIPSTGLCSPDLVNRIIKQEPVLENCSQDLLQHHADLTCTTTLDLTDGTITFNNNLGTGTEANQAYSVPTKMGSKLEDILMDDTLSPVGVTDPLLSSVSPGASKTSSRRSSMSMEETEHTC

[6] = HEK-293T cell viability reduction – luminescence, B-cell screen hits, cytotoxicity control for BCR NF-kB inhibitor project, dose response (AID 489021); type: functional, cell-based;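 also: HEK-293T cells carrying an NF-kB luciferase reporter; cells exposed to compound for about 14 hours before viability readout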
Cytochrome P450 2C19 = Cytochrome P450 2C19 (Homo sapiens, UniProt P33261); test: Cytochrome panel assay with activity outcomes. Panel member name: p450-cyp2c19 Compounds with AC50 equal or less than 10 uM are considered active; type: functional
Sequence of Cytochrome P450 2C19 (P33261 whole entry): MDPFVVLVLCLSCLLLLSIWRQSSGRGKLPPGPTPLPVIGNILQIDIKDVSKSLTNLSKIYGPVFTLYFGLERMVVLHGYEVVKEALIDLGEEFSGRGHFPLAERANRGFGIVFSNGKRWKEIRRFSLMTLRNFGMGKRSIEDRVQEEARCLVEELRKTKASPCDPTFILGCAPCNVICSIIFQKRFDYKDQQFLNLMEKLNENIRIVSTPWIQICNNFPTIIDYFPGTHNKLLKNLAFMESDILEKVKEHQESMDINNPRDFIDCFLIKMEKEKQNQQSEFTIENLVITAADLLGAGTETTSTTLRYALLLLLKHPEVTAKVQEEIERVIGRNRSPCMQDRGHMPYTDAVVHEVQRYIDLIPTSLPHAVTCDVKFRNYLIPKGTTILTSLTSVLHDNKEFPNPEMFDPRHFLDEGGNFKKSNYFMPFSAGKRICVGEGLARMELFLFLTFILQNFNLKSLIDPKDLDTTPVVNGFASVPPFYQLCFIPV

Streptococcus = test: GAS UMAA2166 growth inhibition – luminescence, BacTiterGlo, counter-screen for streptokinase expression inhibitor project, dose response (AID 1915); type: functional, organism-based;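 also: potency for reduction of bacterial viability or growth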
[7] = test system: Streptococcus sp. 'group A'; test: Streptococcus pyogenes SK(-)GAS viability under kanamycin – luminescence, BacTiterGlo, confirmation, counter-screen for streptokinase expression inhibitor project, dose response (AID 1900); type: functional, organism-based
[8] = Luminescence Cell-Based Dose Retest to Confirm Inhibitors of Cancer Stem Cells. [Related pubchem assays (depositor defined):AID2717, AID2721]; type: functional, Homo sapiens; details: Homo sapiens
[9] = target: T3, Sentrin-specific protease 8 (Homo sapiens, UniProt Q96LD8); type: functional
T3 sequence (Q96LD8 whole entry): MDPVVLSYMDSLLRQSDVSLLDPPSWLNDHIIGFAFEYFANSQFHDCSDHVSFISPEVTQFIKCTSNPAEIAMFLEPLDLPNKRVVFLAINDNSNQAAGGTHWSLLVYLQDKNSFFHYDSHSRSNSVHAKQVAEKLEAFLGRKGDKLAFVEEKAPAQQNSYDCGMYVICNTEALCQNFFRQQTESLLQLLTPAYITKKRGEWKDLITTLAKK

[10] = target: T3, Sentrin-specific protease 8; type: functional; remark: listed apart in the source

Sequence of Luciferin 4-monooxygenase (P08659 whole entry): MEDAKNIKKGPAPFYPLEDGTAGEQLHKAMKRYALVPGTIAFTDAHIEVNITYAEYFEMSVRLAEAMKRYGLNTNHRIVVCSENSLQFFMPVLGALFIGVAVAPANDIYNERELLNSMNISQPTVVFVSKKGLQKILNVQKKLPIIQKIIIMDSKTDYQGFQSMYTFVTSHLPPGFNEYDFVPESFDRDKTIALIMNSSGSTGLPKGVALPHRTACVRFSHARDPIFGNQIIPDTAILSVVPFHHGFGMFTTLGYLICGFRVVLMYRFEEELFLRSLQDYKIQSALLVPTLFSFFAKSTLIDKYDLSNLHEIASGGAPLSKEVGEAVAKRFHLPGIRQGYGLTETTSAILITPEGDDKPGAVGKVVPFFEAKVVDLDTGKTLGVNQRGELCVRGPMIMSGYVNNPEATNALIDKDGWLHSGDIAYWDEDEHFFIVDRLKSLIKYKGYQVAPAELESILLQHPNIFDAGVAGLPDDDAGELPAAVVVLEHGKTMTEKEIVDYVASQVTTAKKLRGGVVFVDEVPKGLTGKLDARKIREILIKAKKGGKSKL

**Q.** Which results are given for `COc1ccc(C(N)=O)cc1NC(=O)c1cccc(F)c1`?
**A.** EC50 [1]: > 112 µM (not active); AC50 (Cytochrome P450 1A2): 5.01 µM (inconclusive); AC50 (Cytochrome P450 2D6): inconclusive; EC50 [2]: > 112 µM (not active)

**Q.** For `Cc1[nH]c2ccccc2c1/C=C/C(=O)c1ccncc1`, which IC50 [3] is on record?
**A.** > 100 µM (inactive)

**Q.** And the IC50 [4]?
**A.** 38.8 µM (active)

**Q.** And the IC50 (Prothrombin)?
**A.** 48.4 µM (active)

**Q.** For `C=CCn1c(C)cc(C2=NN=C(NC(C)(C)C)SC2)c1C`, which AC50 [5] is on record?
**A.** 4.09 µM (active)

**Q.** With `COC(=O)[C@@]12OC[C@]34[C@H]([C@@H](O)[C@@H]1O)[C@@]1(C)C(=O)C(O[C@@H]5OC(CO)[C@@H](O)[C@@H](O)[C@@H]5O)=C[C@@H](C)[C@@H]1C[C@H]3OC(=O)[C@H](OC(=O)/C=C(\C)C(C)(C)OC(C)=O)[C@@H]24` (stereo not given in full) as the compound, how does the IC50 [6] read?
**A.** > 80 µM (inactive)

**Q.** Which AC50 (Cytochrome P450 2C19) does the source give for `NC1(C(=O)O)CCCCC1` here?
**A.** inconclusive

**Q.** What about the AC50 (Cytochrome P450 2D6) of the same compound?
**A.** inconclusive

**Q.** Which IC50 [6] does the source give for `O=S(=O)(c1cnc(Cl)c(Cl)c1)N1CCCc2ccccc21` here?
**A.** > 80 µM (inactive)

**Q.** Which IC50 [3] does the source give for `O=C(CSc1nc(O)c2c(C(F)(F)F)cc(-c3cccs3)nc2n1)Nc1ccc(F)c(F)c1` here?
**A.** > 100 µM (inactive)

**Q.** What about the EC50 (Streptococcus) of the same compound?
**A.** 2.58 µM (active)

**Q.** And the EC50 [7]?
**A.** 1.12 µM (active)

**Q.** What about the AC50 [8] of the same compound?
**A.** 1.27 µM (active)

**Q.** And the IC50 [4]?
**A.** 42.7 µM (active)

**Q.** And the IC50 (Prothrombin)?
**A.** 79.4 µM (active)

**Q.** With `Cc1cc(N2C(=O)Cc3ccccc3C2=O)ccc1C(C)C` as the compound, how does the IC50 [9] read?
**A.** 4.5 µM (active)

**Q.** And the IC50 [10]?
**A.** > 100 µM (inactive)
